{
  "source": "patent US20170007562A1",
  "about": "“Use of Guanidinoacetic Acid and/or Creatine for Increasing the Hatch Rate” (EVONIK DEGUSSA GMBH, priority 2014, published 2017)",
  "key": {"[1]": {"system": "parent quails / quail eggs", "assay": "Effect of guanidinoacetic acid in parent feed on total fertility, hatching rate and embryo mortality of quail eggs", "type": "in vivo", "conditions": "for Total fertility: eggs of quails aged 29 weeks; for Hatching rate: hatched quails to incubated eggs", "experimental": "240 parent quails aged 25 weeks were randomly assigned to 5 different rations. Each ration had in each case 8 cages assigned to it, each of which contained a total of 6 birds (4 females, 2 males). Each of the cages was exposed to 17 hours light (natural and artificial), followed by 7 hours dark.\nThe basic feed employed was a mixture which consisted essentially of maize meal and extracted soybean meal (see table 1). Guanidinoacetic acid (GAA) was added to the basic feed in 4 different amounts (0.06; 0.12; 0.18; 0.24% by weight) giving in total 5 different feed mixtures—with the basic feed without guanidinoacetic acid as reference. The inert constituents of the basic feed were in each case partially substituted by the added guanidinoacetic acid. Guanidinoacetic acid was employed in the form of the commercial product CreAMINO® (96% GAA, Evonik Industries, Germany). During the experiment, the feed was administered ad lib in the form of a meal. Furthermore, the birds were also supplied with sufficient water.\nWhen the quails had reached an age of 29 weeks, the eggs laid were collected on seven successive days and stored for six days in a room at a temperature of 20° C. Thereafter, in each case 196 eggs per ration were incubated in an automatic hatcher. After incubation for 15 days in the hatcher, the eggs were transferred into a hatching room with a temperature of 37° C. and relative atmospheric humidity of 65%. After two days in the hatching room, the hatching rate was determined as the ratio of hatched quails to the number of incubated eggs. Equally, the total fertility was determined as the ratio of fertilized eggs to the total number of incubated eggs. Furthermore, the hatching rate of fertilized eggs was determined as the ratio of hatched quails to the number of fertilized eggs. Furthermore, the embryo mortality, too, was determined. Finally, the guanidinoacetic acid, creatine and creatinine contents in the obtained eggs were determined."}, "hatched quail chicks": {"system": "hatched quail chicks", "assay": "Effect of GAA feeding of the parent animals on the properties of the hatched chicks", "type": "in vivo, quails", "conditions": "for Feed conversion / Weight gain / total feed intake, days 1–35: GAA-free ration, days 1 to 35; for Weight on day 1: chicks on GAA-free ration", "text": "Finally, the effect of GAA feeding of the parent animals on the properties of the hatched chicks was also studied. To this end, in each case 80 chicks which had been obtained subsequently to feeding the parent animals with the respective ratios were subjected to a two-step feeding programme. Here, the chicks were subjected to a GAA-free ration. Here, all chicks were given the same feed. The feeding stuff of the chicks for the first three weeks and for weeks four to five can be seen from Table 1. The data determined were chick weight on the day of hatching, chick performance (feed intake, weight increase and feed conversion) and creatine content in the muscle tissue of the freshly hatched chicks."}, "[2]": {"system": "parent broilers (Cobb 500)", "assay": "Effect of guanidinoacetic acid on egg production, fertility and hatching rate of hatchery eggs of parent broilers", "type": "in vivo", "conditions": "week 50 to 60", "text": "120 parent broilers (Cobb 500) were randomly assigned to 5 different 10-week feeding measures from week 50 to week 60 of their lives. In each case 6 cages, each of which contained a total of 4 parent hens were subjected to each feeding measure. The basic feed employed was a mixture consisting essentially of maize meal and soybean meal (Table 5). […] In this context, in each case the inert constituents of the basic feed were substituted to some extent by the added guanidinoacetic acid. Guanidinoacetic acid was employed in the form of the commercial product CreAMINO® (96% GAA, Evonik Industries, Germany). The parent animals were given the feed meal as per instructions of the Cobb Breeder Management Guide. In week 60 of their lives, the hens were twice artificially inseminated, the second insemination taking place 4 days after the first one. The semen used for the insemination was obtained from cockerels which had not been fed GAA. The semen was obtained by using abdominal massage. The semen obtained was collected and the sperm cell concentration was determined in order to ensure that all hens were inseminated with the same number and the same volume of sperm cells. After carrying out the insemination, the laid eggs were collected on 10 successive days. The eggs obtained were finally incubated under identical conditions, and the egg production rate, fertility and hatching rate of the fertilized eggs were subsequently determined."}, "eggs": {"system": "eggs", "conditions": "prior art, Halle et al, Landbauforschung Völkenrode (2006); cited from earlier work"}, "[3]": {"conditions": "0.06% by weight GAA in parent feed"}, "[4]": {"conditions": "0.06% by weight GAA in parent feed, quails"}, "[5]": {"conditions": "0.12% by weight GAA in parent feed"}, "[6]": {"conditions": "0.12% by weight GAA in parent feed, quails"}, "[7]": {"conditions": "0.18% by weight GAA in parent feed"}, "[8]": {"conditions": "0.18% by weight GAA in parent feed, quails"}, "[9]": {"conditions": "0.24% by weight GAA in parent feed"}, "[10]": {"conditions": "0.24% by weight GAA in parent feed, quails"}, "[11]": {"conditions": "square regression analysis, quails"}, "[12]": {"conditions": "chicks of parents fed 0.06% by weight GAA"}, "[13]": {"conditions": "chicks of parents fed 0.12% by weight GAA"}, "[14]": {"conditions": "chicks of parents fed 0.18% by weight GAA"}, "[15]": {"conditions": "chicks of parents fed 0.24% by weight GAA"}, "[16]": {"conditions": "0.04% by weight guanidinoacetic acid in feed"}, "[17]": {"conditions": "0.08% by weight guanidinoacetic acid in feed"}, "[18]": {"conditions": "0.12% by weight guanidinoacetic acid in feed"}, "[19]": {"conditions": "0.16% by weight guanidinoacetic acid in feed"}},
  "data": [
    {"smiles": "N=C(N)NCC(=O)O", "note": "[GAA, Guanidinoacetic acid]", "values": [
      {"measurement": "Total fertility", "setting": "[1]; [3]", "result": "95.27 ± 1.81", "unit": "%"},
      {"measurement": "Hatching rate", "setting": "[1]; [3]", "result": "76.52 ± 3.78", "unit": "%"},
      {"measurement": "Hatching rate of the fertilized eggs", "setting": "[1]; [4]", "result": "80.19 ± 3.07", "unit": "%"},
      {"measurement": "Mortality (embryo mortality)", "setting": "[1]; [4]", "result": "18.75 ± 2.76", "unit": "%"},
      {"measurement": "Total fertility", "setting": "[1]; [5]", "result": "97.05 ± 1.51", "unit": "%"},
      {"measurement": "Hatching rate", "setting": "[1]; [5]", "result": "90.69 ± 2.10", "unit": "%"},
      {"measurement": "Hatching rate of the fertilized eggs", "setting": "[1]; [6]", "result": "93.49 ± 2.04", "unit": "%"},
      {"measurement": "Mortality (embryo mortality)", "setting": "[1]; [6]", "result": "6.40 ± 1.96", "unit": "%"},
      {"measurement": "Total fertility", "setting": "[1]; [7]", "result": "98.32 ± 0.82", "unit": "%"},
      {"measurement": "Hatching rate", "setting": "[1]; [7]", "result": "87.39 ± 3.20", "unit": "%"},
      {"measurement": "Hatching rate of the fertilized eggs", "setting": "[1]; [8]", "result": "88.94 ± 3.33", "unit": "%"},
      {"measurement": "Mortality (embryo mortality)", "setting": "[1]; [8]", "result": "10.92 ± 3.32", "unit": "%"},
      {"measurement": "Total fertility", "setting": "[1]; [9]", "result": "94.02 ± 1.29", "unit": "%"},
      {"measurement": "Hatching rate", "setting": "[1]; [9]", "result": "81.38 ± 2.50", "unit": "%"},
      {"measurement": "Hatching rate of the fertilized eggs", "setting": "[1]; [10]", "result": "86.51 ± 2.03", "unit": "%"},
      {"measurement": "Mortality (embryo mortality)", "setting": "[1]; [10]", "result": "12.64 ± 1.89", "unit": "%"},
      {"measurement": "dosage from which the observed effects were significantly increased", "setting": "[1]; quails", "result": "above 0.1 % by weight"},
      {"measurement": "optimum range of feeding the parent animals", "setting": "[1]; quails", "result": "0.12-0.18 % by weight"},
      {"measurement": "optimum value for GAA supplementation in terms of the hatching rate", "setting": "[1]; [11]", "result": 0.15, "unit": "% by weight"},
      {"measurement": "optimum value for GAA supplementation in terms of the hatching rate of fertilized eggs", "setting": "[1]; [11]", "result": 0.16, "unit": "% by weight"},
      {"measurement": "optimum value for GAA supplementation in terms of the mortality rate", "setting": "[1]; [11]", "result": 0.16, "unit": "% by weight"},
      {"measurement": "optimum value for GAA supplementation in terms of the total reproduction", "setting": "[1]; [11]", "result": 0.14, "unit": "% by weight"},
      {"measurement": "Feed conversion", "setting": "hatched quail chicks; [12]", "result": "3.248 ± 0.063", "unit": "g/g"},
      {"measurement": "Weight gain", "setting": "hatched quail chicks; [12]", "result": "230.74 ± 7.6", "unit": "g"},
      {"measurement": "total feed intake, days 1–35", "setting": "hatched quail chicks; [12]", "result": "748 ± 11.1", "unit": "g"},
      {"measurement": "Weight on day 1", "setting": "hatched quail chicks; [12]", "result": "9.60 ± 0.16", "unit": "g"},
      {"measurement": "Feed conversion", "setting": "hatched quail chicks; [13]", "result": "3.414 ± 0.048", "unit": "g/g"},
      {"measurement": "Weight gain", "setting": "hatched quail chicks; [13]", "result": "224.98 ± 2.9", "unit": "g"},
      {"measurement": "total feed intake, days 1–35", "setting": "hatched quail chicks; [13]", "result": "768 ± 11.1", "unit": "g"},
      {"measurement": "Weight on day 1", "setting": "hatched quail chicks; [13]", "result": "9.74 ± 0.31", "unit": "g"},
      {"measurement": "Feed conversion", "setting": "hatched quail chicks; [14]", "result": "3.305 ± 0.033", "unit": "g/g"},
      {"measurement": "Weight gain", "setting": "hatched quail chicks; [14]", "result": "217.22 ± 0.6", "unit": "g"},
      {"measurement": "total feed intake, days 1–35", "setting": "hatched quail chicks; [14]", "result": "718 ± 8.95", "unit": "g"},
      {"measurement": "Weight on day 1", "setting": "hatched quail chicks; [14]", "result": "9.65 ± 0.16", "unit": "g"},
      {"measurement": "Feed conversion", "setting": "hatched quail chicks; [15]", "result": "3.455 ± 0.090", "unit": "g/g"},
      {"measurement": "Weight gain", "setting": "hatched quail chicks; [15]", "result": "222.86 ± 1.9", "unit": "g"},
      {"measurement": "total feed intake, days 1–35", "setting": "hatched quail chicks; [15]", "result": "770 ± 26.1", "unit": "g"},
      {"measurement": "Weight on day 1", "setting": "hatched quail chicks; [15]", "result": "9.41 ± 0.17", "unit": "g"},
      {"measurement": "Creatine in the muscle", "setting": "hatched quail chicks; freshly hatched chicks of parents fed 0.06% by weight GAA", "result": "0.541 ± 0.026", "unit": "mg/g"},
      {"measurement": "Creatine in the muscle", "setting": "hatched quail chicks; freshly hatched chicks of parents fed 0.12% by weight GAA", "result": "0.489 ± 0.058", "unit": "mg/g"},
      {"measurement": "Creatine in the muscle", "setting": "hatched quail chicks; freshly hatched chicks of parents fed 0.18% by weight GAA", "result": "0.481 ± 0.040", "unit": "mg/g"},
      {"measurement": "Creatine in the muscle", "setting": "hatched quail chicks; freshly hatched chicks of parents fed 0.24% by weight GAA", "result": "0.433 ± 0.033", "unit": "mg/g"},
      {"measurement": "Egg production", "setting": "[2]; [16]", "result": 50.42, "unit": "%"},
      {"measurement": "Fertility", "setting": "[2]; [16]", "result": 85.15, "unit": "%"},
      {"measurement": "Hatching rate (of fertilized eggs)", "setting": "[2]; [16]", "result": 65.59, "unit": "%"},
      {"measurement": "Egg production", "setting": "[2]; [17]", "result": 53.18, "unit": "%"},
      {"measurement": "Fertility", "setting": "[2]; [17]", "result": 96.51, "unit": "%"},
      {"measurement": "Hatching rate (of fertilized eggs)", "setting": "[2]; [17]", "result": 83.76, "unit": "%"},
      {"measurement": "Egg production", "setting": "[2]; [18]", "result": 53.44, "unit": "%"},
      {"measurement": "Fertility", "setting": "[2]; [18]", "result": 96.43, "unit": "%"},
      {"measurement": "Hatching rate (of fertilized eggs)", "setting": "[2]; [18]", "result": 83.95, "unit": "%"},
      {"measurement": "Egg production", "setting": "[2]; [19]", "result": 50.50, "unit": "%"},
      {"measurement": "Fertility", "setting": "[2]; [19]", "result": 81.76, "unit": "%"},
      {"measurement": "Hatching rate (of fertilized eggs)", "setting": "[2]; [19]", "result": 65.04, "unit": "%"}
    ]},
    {"smiles": "CN(CC(=O)O)C(=N)N", "note": "[creatine]", "values": [
      {"measurement": "effect on the hatching rate", "setting": "eggs", "result": "no effect"}
    ]}
  ]
}
